# From patent US20240156791A1, “METHODS OF TREATING SPINAL CORD INJURY OR DAMAGE” (Spinogenix, Inc., priority 2021, published 2024)
# System: rat C2 hemisection (C2HS) model of spinal cord injury
# Test: rat C2 hemisection (C2HS) model of spinal cord injury, recovery monitored by diaphragm EMG
# Type: in vivo
# Experimental: A representative compound of this disclosure, Compound 1, was used in treating spinal cord injury in rats. The rat C2 hemisection (C2HS) model of spinal cord injury was used in this experiment. The spinal cord injury was modeled in rats by hemi-section at the level of C2 followed by monitoring of lesion and recovery was conducted by one of the following methods: diaphragm EMG, transdiaphragmatic pressure, and ventilatory behaviors.
# Seven rats were treated with Compound 1 (30 mg/kg) and 8 rats were treated with a vehicle (0.5% DMSO in phosphate buffered saline) for 14 days and their recovery was monitored. […] Also, the magnitude of recovery was an average 54% among recovered compound-treated rats as compared to vehicle-treated rats.
# Similar experiment was carried out separately using 4 rats and it provided similar results as those described above.
# [1] = separate similar experiment using 4 rats
smiles,measurement,setting,value
OCCOCCOCCOCCOc1ccc(-c2nc3ccccc3s2)cc1 [Compound 1],recovery compared with brain derived neurotrophic factor approaches,30 mg/kg for 14 days,greater than that seen for brain derived neurothrophic factor approaches
same,rats recovered as judged by diaphragm EMG,"30 mg/kg for 14 days, seven rats, by day 14 post lesion",86%
same,magnitude of recovery (average) among recovered compound-treated rats as compared to vehicle-treated rats,"30 mg/kg for 14 days, diaphragm EMG",54%
same,recovery from spinal cord injury as judged by diaphragm EMG (FIG. 1A),rats treated with compound vs vehicle (0.5% DMSO in PBS),enhancement of recovery
same,% recovery as compared to vehicle-treated rats,[1],greater % recovery
same,magnitude of recovery as compared to vehicle-treated rats,[1],greater magnitude of recovery
